# Experiments:
# prostate cancer DU145 = experiment: DU145 cell growth (MTT assay); assay type: cell-based; details: highest testing dose (5 μg/ml) (FIG. 19E)
# Excerpt: (§1) L5, L6 and L6 analogs (Chembridge), mouse IFNγ ELISPOT Kit (R & D System) and antibody against pLck-pY394 or pERK1/2 (Cell Signaling) were purchased from commercial sources. Human Jurkat T cell line and murine B16 melanoma cell line (ATCC) and other cancer cell lines were maintained in […] culture medium supplemented with 10% fetal calf serum (FCS). The effects of chemical compounds on cancer cell growth in culture were quantified by MTT assays following our established procedures.
# [1] = system: melanoma MeI-7, colon cancer MC-26, breast cancer 4T1 and prostate cancer DU145; experiment: cyto-toxicity against four other cancer cell lines (MTT assay); assay type: cell-based; details: FIGS. 19B, C and D
# Excerpt: as §1
# Jurkat cells = experiment: Jurkat cell apoptosis (Annexin V / 7-AAD, FACS); assay type: cell-based, human; details: 16 hrs (FIG. 23)
# Method: FIG. 23 illustrates jurkat cells were treated with L6 and analogs in culture for 16 hrs. Cells were then stained for apoptotic marker Annexin V and cell death marker 7-AAD prior to FACS analysis.
# MKPs = experiment: induction of MKPs substrates in Jurkat cells (Western blotting); assay type: cell-based, human; details: for differential effects on MKP substrates (pERK1/2, p38, pJNK): L6 at 1-100 ng/ml
# Method: FIG. 22 illustrates selective induction of MKPs substrates by L6 and analogs in Jurkat human leukemic cells. Jurkat cells were treated with the compounds for 30 min in culture prior to quantification of MKPs substrates by SDS-PAGE/Western blotting.
# B16 melanoma cells = experiment: B16 melanoma cell growth in culture (MTT assay); assay type: cell-based, mouse
# Excerpt: as §1
# pERK1/2 in B16 cells = pERK1/2 in B16 cells (Western blotting); assay type: cell-based, mouse; details: 10 min (FIG. 20C)
# Method: FIG. 20 illustrates L6 induces pERK1/2 in Jurkat and B16 cells. A and B, Western blotting membranes with samples and probed for the SHP-1 substrates were stripped and then re-probed with an antibody for pERK1/2. C, B16 cells were treated with L6 or L6a6 at […] for 10 min and subjected to SDS-PAGE/Western blotting to quantify pERK1/2.
# [2] = system: HT-29 human colon cancer cells; experiment: cytotoxicity of 5FU against HT-29 cells with L6 or analogs (MTT assay); assay type: cell-based; details: 5FU 2 μm, 3 days, then 4 days culture (FIG. 24)
# Method: FIG. 24 illustrates HT-29 cells were treated with L6 or the analogs in the absence or presence of 5FU (2 μm) for 3 days. After washing, the cells were cultured for 4 days prior to quantification of viable cells by MTT assays.
SMILES,DU145 cell growth (prostate cancer DU145),killing dose relative to L6 and L6a6 [1],Jurkat cell apoptosis (Jurkat cells),MKP predominantly targeted (as indicated by effects on the substrates) (MKPs),"differential effects on MKP substrates (pERK1/2, p38, pJNK) (MKPs; 30 min (FIG. 22))",dose that completely killed B16 cells (killing dose) (B16 melanoma cells; FIG. 19A),toxicity toward B16 cells in culture (B16 melanoma cells; comparable conditions (FIG. 19A)),induction of pERK1/2 in B16 cells (pERK1/2 in B16 cells),augmentation of 5FU cytotoxicity against HT-29 cells [2],dose inducing pJNK and p-p38 (MKPs; 30 min (FIG. 22))
Cc1ccc(-n2sc3ccccc3c2=O)cc1 [L6a2],failed to affect DU145 cell growth,5-10 folds higher,apoptosis were induced,targeted a p38-specific MKP,selectively induced p38 phosphorylation,2.5 µg/mL,little or limited toxicity,–,–,–
Cc1cc(-n2sc(Cl)c(C)c2=O)ccc1Cl [L6a6],–,–,apoptosis were induced,mainly acted against MKP1,induced pERK1/2 only at the high doses,–,–,pERK1/2-inducing activity,augmented,≥ 1 ng/ml

# Reference: patent publication US20080051464A1, “Protein phosphatase inhibitors” (The Cleveland Clinic Foundation, priority 2006, published 2008)
